Molecular target: Platelet-derived growth factor receptor beta (Homo sapiens, UniProt P09619)
Test: PDGFRβ Kinase Assay: Biochemical PDGFRβ kinase assays were performed in 96 well microtiter plates that were coated overnight with 75 μg of poly-Glu-Tyr (4:1) in 10 mM Phosphate Buffered Saline (PBS), pH 7.4. The coated plates were washed with 2 mls per well PBS+0.05% Tween-20 (PBS-T), blocked by incubation with PBS containing 1% BSA, then washed with 2 mls per well PBS-T prior to starting the reaction. Reactions were carried out in 100 μL reaction volumes containing 36 μM ATP in kinase buffer (50 mM Hepes buffer pH 7.4, 20 mM MgCl2, 0.1 mM MnCl2 and 0.2 mM Na3VO4). Test compounds were reconstituted in 100% DMSO and added to the reaction to give a final DMSO concentration of 5%. Reactions were initiated by the addition 20 ul per well of kinase buffer containing 200-300 ng purified cytoplasmic domain PDGFR-b protein (Millipore). Following a 60 minute incubation at 30° C., the reactions were washed 2 mls per well PBS-T. 100 μl of a monoclonal anti-phosphotyrosine antibody-peroxidase conjugate diluted 1:10,000 in PBS-T was added to the wells for 30 minutes. Following a 2 mls per well wash with PBS-Tween-20, 100 μl of O-Phenylenediamine Dihydrochloride in phosphate-citrate buffer, containing urea hydrogen peroxide, was added to the wells for 7-10 minutes as a colorimetric substrate for the peroxidase. […]

Chain of Platelet-derived growth factor receptor beta (P09619 whole entry, the tested form may be a part): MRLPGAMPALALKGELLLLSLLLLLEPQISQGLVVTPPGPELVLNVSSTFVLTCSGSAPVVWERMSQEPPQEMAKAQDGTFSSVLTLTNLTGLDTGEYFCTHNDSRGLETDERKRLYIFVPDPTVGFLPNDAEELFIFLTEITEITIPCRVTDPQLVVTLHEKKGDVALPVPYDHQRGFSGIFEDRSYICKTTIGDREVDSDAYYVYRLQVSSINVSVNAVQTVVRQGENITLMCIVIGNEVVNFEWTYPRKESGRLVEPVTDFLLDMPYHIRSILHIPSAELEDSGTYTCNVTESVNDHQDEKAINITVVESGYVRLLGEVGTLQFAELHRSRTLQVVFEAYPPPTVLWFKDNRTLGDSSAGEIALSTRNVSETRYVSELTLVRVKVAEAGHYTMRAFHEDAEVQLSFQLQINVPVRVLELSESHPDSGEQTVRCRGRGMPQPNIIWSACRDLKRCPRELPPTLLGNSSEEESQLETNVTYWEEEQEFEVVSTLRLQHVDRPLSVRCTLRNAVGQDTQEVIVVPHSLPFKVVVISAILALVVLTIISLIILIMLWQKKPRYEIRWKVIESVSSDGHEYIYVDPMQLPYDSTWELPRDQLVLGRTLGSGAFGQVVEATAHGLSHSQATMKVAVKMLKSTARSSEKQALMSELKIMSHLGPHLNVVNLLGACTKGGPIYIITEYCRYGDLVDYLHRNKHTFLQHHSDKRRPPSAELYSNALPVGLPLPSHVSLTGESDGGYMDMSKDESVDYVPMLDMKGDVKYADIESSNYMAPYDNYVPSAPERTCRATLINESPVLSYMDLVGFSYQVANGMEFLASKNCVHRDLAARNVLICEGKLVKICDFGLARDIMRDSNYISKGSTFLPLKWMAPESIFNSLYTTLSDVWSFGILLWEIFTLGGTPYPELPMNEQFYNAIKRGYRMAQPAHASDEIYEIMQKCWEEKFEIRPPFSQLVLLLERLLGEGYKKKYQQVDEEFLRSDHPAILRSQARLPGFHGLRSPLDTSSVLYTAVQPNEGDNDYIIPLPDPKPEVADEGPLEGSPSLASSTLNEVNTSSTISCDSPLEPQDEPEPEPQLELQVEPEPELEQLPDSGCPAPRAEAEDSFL

IC50: 11 nM
SMILES: Cc1ccc(F)c(NC(=O)c2cccc(C#Cc3cc(C(=O)N=S4(=O)CCOCC4)cnc3N)c2)c1

Reference: ChEMBL document CHEMBL5725727, “Substituted nicotinamide derivatives as kinase inhibitors” (2017)
